Like-named read-outs stand apart in the source and are kept apart here.
Assays:
[1] = tested on: HIV clinical strains; conditions: background statement; read-out: EC50 against broad HIV clinical strains; cited from earlier work
[2] = tested on: A549 cells; conditions: human, 2 days
[3] = tested on: HIV; assay: microbe, parasite or virus in culture; format: cell-based, HIV-1
[4] = tested on: A549 cells; assay: Cytotoxicity evaluation using the SRB assay; conditions: Table 1; inhibition of cell growth of host A549 cells by 50%; triplicate

Q: Which EC50 [1] does the source give for `Cc1cn([C@H]2C[C@H](N=[N+]=[N-])[C@@H](CO)O2)c(=O)[nH]c1=O` [Zidovudine (AZT), Zidovudine] here?
A: Its EC50 is 0.077 to 0.095 µM.

Q: For `COc1cc2c(OC3OCC(O)(CO)C3OC3OCC(O)C(O)C3O)c3c(c(-c4cc5c(cc4O)OCO5)c2cc1OC)C(=O)OC3` (single isomer, unassigned) [Compound 50], which CC50 [2] is on record?
A: Its CC50 is over 25 µM.

Q: What about the EC50 [3] of the same molecule?
A: Its EC50 is 23.1 µM.

Q: With `COc1cc2c(O[C@@H]3OC[C@](O)(CO)[C@H]3O)c3c(c(-c4ccc5c(c4)OCO5)c2cc1OC)C(=O)OC3` [Tuberculatin (1), tuberculatin] as the molecule, how does the CC50 [4] read?
A: The CC50 was 3.27 µM.

Q: And the EC50 ([3]; read-out: EC50)?
A: The EC50 was 0.22 µM.

Q: Which CC50 [2] does the source give for `COc1cc2c(OC3OCC(O)(CO)C3O)c3c(c(-c4cc5c(cc4O)OCO5)c2cc1OC)C(=O)OC3` (single isomer, unassigned) [Compound 47] here?
A: The CC50 was over 25 µM.

Q: And the EC50 [3]?
A: The EC50 was over 25 µM.

Q: For `COc1cc2c(OC3OCC(O)(CO)C3O)c3c(c(-c4cc5c(cc4O)OCO5)c2cc1OC)C(=O)OC3` (single isomer, unassigned) [Compound 46], which CC50 [2] is on record?
A: The CC50 was over 50 µM.

Q: And the EC50 [3]?
A: The EC50 was 48.6 µM.

Q: Which CC50 [4] does the source give for `COc1cc2c(OC3OCC(O)(COC4OCC(O)C(O)C4O)C3OC3OCC(O)C(O)C3O)c3c(c(-c4cc5c(cc4O)OCO5)c2cc1OC)C(=O)OC3` (single isomer, unassigned) [Compound 52] here?
A: Its CC50 is over 25 µM.

Q: And the EC50 [3]?
A: The EC50 was over 25 µM.
